Assay results taken from patent publication US8309730B2, “Nonsteroidal compounds useful as modulators of glucocorticoid receptor AP-1 and/or NF-kappab acitivity and use thereof” (Bristol-Myers Squibb Company, priority 2007, dated 2012).

Test system: AP-1 induced transcriptional activity
Test: Cellular Transrepressional Assay (AP-1 luciferase reporter in A549 cells)
Format: cell-based
Conditions: Homo sapiens, A549 cells stably transfected with pAP-1-Luc, 10 ng/ml PMA, 7 hours; for Emax: maximum inhibition, read-out: AP-1 Max % inh (Cellular Transrepression Assay); for EC50: read-out: AP-1 EC50, nM (Cellular Transrepression Assay)
Experimental: To measure the ability of test molecules to inhibit AP-1 induced transcriptional activity we utilized an A549 cell which was stably transfected with a plasmid containing 7×AP-1 DNA binding sites (pAP-1-Luc plasmid, Stratagene Co. La Jolla, Calif.) followed by the gene for luciferase. Cells were activated with 10 ng/ml of phorbol myristic acid (PMA) plus or minus test molecules for 7 hours. After 7 hours a luciferase reagent was added to measure luciferase enzymatic activity in the cell. After a 10 minute incubation of luciferase reagent with cells, luminescence was measured in a TopCount luminescence counter. Repression of AP-1 activity was calculated as the percentage decrease in the signal induced by PMA alone. Test molecules were analyzed in the concentration range from 0.1 nM to 40 μM. EC50 values were determined by using standard curve fitting methods such as Excel fit (Microsoft Co.).

C[C@]12Cn3cnc(-c4ccccc4)c3C=C1CCC[C@@H]2[C@](C)(O)c1csc2ccccc12 (racemic) [Example 15]
Emax: 42.7% | EC50: 145 nM

C[C@]12Cn3cnc(-c4ccccc4)c3C=C1CCC[C@@H]2[C@](C)(O)c1csc2ccccc12 (single isomer, unassigned) [Example 31]
Emax: 41.2% | EC50: 181 nM

C[C@]12Cn3cnc(-c4ccc(F)cc4)c3C=C1CCC[C@@H]2[C@](C)(O)c1cccs1 [Example 1, (S)-1-((5aR,6S)-1-(4-Fluorophenyl)-5a-methyl-5,5a,6,7,8,9-hexahydroimidazo[1,5-b]isoquinolin-6-yl)-1-(thiophen-2-yl)ethanol]
Emax: 38.1% | EC50: 21.4 nM

CN(C)C(=O)c1ccc([C@@](C)(O)[C@H]2CCCC3=Cc4c(-c5ccc(F)cc5)ncn4C[C@@]32C)s1 [Example 3, 5-((S)-1-((5aR,6S)-1-(4-Fluorophenyl)-5a-methyl-5,5a,6,7,8,9-hexahydroimidazo[1,5-b]isoquinolin-6-yl)-1-hydroxyethyl)-N,N-dimethylthiophene-2-carboxamide]
Emax: 29.5% | EC50: 267 nM

C[C@]12Cn3cnc(-c4ccc(F)cc4)c3C=C1CCC[C@@H]2CCNc1nncs1 [Example 5, N-(2-((5aR,6R)-1-(4-Fluorophenyl)-5a-methyl-5,5a,6,7,8,9-hexahydroimidazo[1,5-b]isoquinolin-6-yl)ethyl)-1,3,4-thiadiazol-2-amine]
Emax: 22.6% | EC50: 98 nM

C[S+]([O-])c1cccc([C@@](C)(O)[C@H]2CCCC3=Cc4c(-c5ccc(F)cc5)ncn4C[C@@]32C)c1 (stereo partly drawn) [Example 8b, (1S)-1-((5aR,6S)-1-(4-fluorophenyl)-5a-methyl-5,5a,6,7,8,9-hexahydroimidazo[1,5-b]isoquinolin-6-yl)-1-(3-(methylsulfinyl)phenyl)ethanol]
Emax: 40.7% | EC50: 236 nM

CC(C)(O)c1cccc([C@@](C)(O)[C@H]2CCCC3=Cc4c(-c5ccc(F)cc5)ncn4C[C@@]32C)c1 [Example 9, 2-(3-((S)-1-((5aR,6S)-1-(4-Fluorophenyl)-5a-methyl-5,5a,6,7,8,9-hexahydroimidazo[1,5-b]isoquinolin-6-yl)-1-hydroxyethyl)phenyl)propan-2-ol]
Emax: 34.3% | EC50: 144 nM

C[C@]12Cn3cnc(-c4ccc(F)cc4)c3C=C1CCC[C@@H]2[C@](C)(O)C(F)(F)F [Example 10, (S)-1,1,1-Trifluoro-2-((5aR,6S)-1-(4-fluorophenyl)-5a-methyl-5,5a,6,7,8,9-hexahydroimidazo[1,5-b]isoquinolin-6-yl)propan-2-ol]
Emax: 31.3% | EC50: 30.9 nM

C[C@]12Cn3cnc(-c4ccc(F)cc4)c3C=C1CCC[C@@H]2[C@](C)(O)c1ccc(F)cc1 [Example 48]
Emax: 35.6% | EC50: 11.9 nM

C[C@]12Cn3cnc(-c4ccc(F)cc4)c3C=C1CCC[C@@H]2[C@](C)(O)c1ccc(Cl)cc1 [Example 53]
Emax: 44.6% | EC50: 63.2 nM

C[C@]12Cn3cnc(-c4ccc(F)cc4)c3C=C1CCC[C@@H]2[C@](C)(O)c1ccsc1 [Example 54]
Emax: 42.7% | EC50: 4.67 nM

C[C@]12Cn3cnc(-c4ccc(F)cc4)c3C=C1CCC[C@@H]2[C@](C)(O)Cc1ccc(F)cc1 [Example 55]
Emax: 53.7% | EC50: 84.2 nM

C[C@]12Cn3cnc(-c4ccc(F)cc4)c3C=C1CCC[C@@H]2[C@](C)(O)c1ccc(F)c(Cl)c1 [Example 56]
Emax: 39.6% | EC50: 19.3 nM

C=CC[C@@](C)(O)[C@H]1CCCC2=Cc3c(-c4ccc(F)cc4)ncn3C[C@@]21C [Example 57]
Emax: 55.9% | EC50: 56.6 nM

C[C@]12Cn3cnc(-c4ccc(F)cc4)c3C=C1CCC[C@@H]2[C@](C)(O)C1CC1 [Example 58]
Emax: 35.8% | EC50: 36.8 nM

Cc1ccc([C@@](C)(O)[C@H]2CCCC3=Cc4c(-c5ccc(F)cc5)ncn4C[C@@]32C)s1 [Example 60]
Emax: 48.3% | EC50: 31.3 nM

Cc1ccsc1[C@@](C)(O)[C@H]1CCCC2=Cc3c(-c4ccc(F)cc4)ncn3C[C@@]21C [Example 61]
Emax: 58.8% | EC50: 11.6 nM
